{"source": "ChEMBL document CHEMBL3425471", "about": "“Design, synthesis and biological evaluation of novel pyrazoline-containing derivatives as potential tubulin assembling inhibitors” (Eur J Med Chem, 2015)", "key": {"Tubulin": {"target": "Tubulin (Bos taurus, UniProt Q6B856+Q862L2+Q862F3)", "experiment": "Inhibition of bovine brain tubulin polymerization after 20 mins by turbidimetric analysis"}, "MCF7": {"test_system": "MCF7", "experiment": "cells", "conditions": "Homo sapiens, MCF7, 24 h", "description": "Antiproliferative activity against human MCF7 cells assessed as reduction in cell viability after 24 hrs by MTT assay"}, "A549": {"test_system": "A549", "experiment": "cells", "conditions": "Homo sapiens, A549, 24 h", "description": "Antiproliferative activity against human A549 cells assessed as reduction in cell viability after 24 hrs by MTT assay"}, "HepG2 [1]": {"test_system": "HepG2", "experiment": "cells", "conditions": "Homo sapiens, HepG2, 24 h", "description": "Antiproliferative activity against human HepG2 cells assessed as reduction in cell viability after 24 hrs by MTT assay"}, "HepG2 [2]": {"test_system": "HepG2", "experiment": "Induction of apoptosis in human HepG2 cells assessed as necrotic cells at 0.05 uM after 24 hrs by AnnexinV-FITC/PI staining based flow cytometry (reference value: 1.63%)", "assay_type": "functional"}, "HepG2 [3]": {"test_system": "HepG2", "experiment": "Induction of apoptosis in human HepG2 cells assessed as viable cells at 0.01 uM after 24 hrs by AnnexinV-FITC/PI staining based flow cytometry (reference value: 93.0%)", "assay_type": "functional", "conditions": "HepG2, 24 h, read-out: Activity"}, "HepG2 [4]": {"test_system": "HepG2", "experiment": "Cell cycle arrest in human HepG2 cells assessed as accumulation of cells at S phase of cell cycle at 0.01 uM after 48 hrs by propidium iodide staining based flow cytometry (reference value: 19.71%)", "assay_type": "functional"}, "HepG2 [5]": {"test_system": "HepG2", "experiment": "Induction of apoptosis in human HepG2 cells assessed as viable cells at 0.03 uM after 24 hrs by AnnexinV-FITC/PI staining based flow cytometry (reference value: 93.0%)", "assay_type": "functional", "conditions": "HepG2, 24 h, read-out: Activity"}, "HepG2 [6]": {"test_system": "HepG2", "experiment": "Induction of apoptosis in human HepG2 cells assessed as late apoptotic cells at 0.01 uM after 24 hrs by AnnexinV-FITC/PI staining based flow cytometry (reference value: 1.49%)", "assay_type": "functional"}, "HepG2 [7]": {"test_system": "HepG2", "experiment": "Induction of apoptosis in human HepG2 cells assessed as viable cells at 0.05 uM after 24 hrs by AnnexinV-FITC/PI staining based flow cytometry (reference value: 93.0%)", "assay_type": "functional", "conditions": "HepG2, 24 h, read-out: Activity"}, "HepG2 [8]": {"test_system": "HepG2", "experiment": "Cell cycle arrest in human HepG2 cells assessed as accumulation of cells at G1 phase of cell cycle at 0.05 uM after 48 hrs by propidium iodide staining based flow cytometry (reference value: 75.2%)", "assay_type": "functional"}, "HepG2 [9]": {"test_system": "HepG2", "experiment": "Cell cycle arrest in human HepG2 cells assessed as accumulation of cells at S phase of cell cycle at 0.03 uM after 48 hrs by propidium iodide staining based flow cytometry (reference value: 19.71%)", "assay_type": "functional"}, "HepG2 [10]": {"test_system": "HepG2", "experiment": "Induction of apoptosis in human HepG2 cells assessed as late apoptotic cells at 0.03 uM after 24 hrs by AnnexinV-FITC/PI staining based flow cytometry (reference value: 1.49%)", "assay_type": "functional"}, "HepG2 [11]": {"test_system": "HepG2", "experiment": "Induction of apoptosis in human HepG2 cells assessed as necrotic cells at 0.03 uM after 24 hrs by AnnexinV-FITC/PI staining based flow cytometry (reference value: 1.63%)", "assay_type": "functional"}, "HepG2 [12]": {"test_system": "HepG2", "experiment": "Induction of apoptosis in human HepG2 cells assessed as early apoptotic cells at 0.05 uM after 24 hrs by AnnexinV-FITC/PI staining based flow cytometry (reference value: 3.89%)", "assay_type": "functional"}, "HepG2 [13]": {"test_system": "HepG2", "experiment": "Induction of apoptosis in human HepG2 cells assessed as necrotic cells at 0.01 uM after 24 hrs by AnnexinV-FITC/PI staining based flow cytometry (reference value: 1.63%)", "assay_type": "functional"}, "HepG2 [14]": {"test_system": "HepG2", "experiment": "Induction of apoptosis in human HepG2 cells assessed as early apoptotic cells at 0.03 uM after 24 hrs by AnnexinV-FITC/PI staining based flow cytometry (reference value: 3.89%)", "assay_type": "functional"}, "HepG2 [15]": {"test_system": "HepG2", "experiment": "Induction of apoptosis in human HepG2 cells assessed as late apoptotic cells at 0.05 uM after 24 hrs by AnnexinV-FITC/PI staining based flow cytometry (reference value: 1.49%)", "assay_type": "functional"}, "HepG2 [16]": {"test_system": "HepG2", "experiment": "Cell cycle arrest in human HepG2 cells assessed as accumulation of cells at G1 phase of cell cycle at 0.01 uM after 48 hrs by propidium iodide staining based flow cytometry (reference value: 75.2%)", "assay_type": "functional"}, "HepG2 [17]": {"test_system": "HepG2", "experiment": "Cell cycle arrest in human HepG2 cells assessed as accumulation of cells at G2 phase of cell cycle at 0.03 uM after 48 hrs by propidium iodide staining based flow cytometry (reference value: 5.09%)", "assay_type": "functional"}, "HepG2 [18]": {"test_system": "HepG2", "experiment": "Cell cycle arrest in human HepG2 cells assessed as accumulation of cells at G1 phase of cell cycle at 0.03 uM after 48 hrs by propidium iodide staining based flow cytometry (reference value: 75.2%)", "assay_type": "functional"}, "HepG2 [19]": {"test_system": "HepG2", "experiment": "Induction of apoptosis in human HepG2 cells assessed as early apoptotic cells at 0.01 uM after 24 hrs by AnnexinV-FITC/PI staining based flow cytometry (reference value: 3.89%)", "assay_type": "functional"}, "HepG2 [20]": {"test_system": "HepG2", "experiment": "Cell cycle arrest in human HepG2 cells assessed as accumulation of cells at G2 phase of cell cycle at 0.05 uM after 48 hrs by propidium iodide staining based flow cytometry (reference value: 5.09%)", "assay_type": "functional"}, "HepG2 [21]": {"test_system": "HepG2", "experiment": "Cell cycle arrest in human HepG2 cells assessed as accumulation of cells at S phase of cell cycle at 0.05 uM after 48 hrs by propidium iodide staining based flow cytometry (reference value: 19.71%)", "assay_type": "functional"}, "HepG2 [22]": {"test_system": "HepG2", "experiment": "Cell cycle arrest in human HepG2 cells assessed as accumulation of cells at G2 phase of cell cycle at 0.01 uM after 48 hrs by propidium iodide staining based flow cytometry (reference value: 5.09%)", "assay_type": "functional"}}}
{"smiles": "COc1ccc(C2=NN(C(=O)c3ccccc3)C(c3ccc4c(c3)OCO4)C2)cc1", "note": "(configuration not stated)", "values": [{"measurement": "IC50", "setting": "Tubulin", "value": 35.45, "unit": "µM"}, {"measurement": "IC50", "setting": "MCF7", "value": 5.37, "unit": "µM"}, {"measurement": "IC50", "setting": "A549", "value": 5.21, "unit": "µM"}, {"measurement": "IC50", "setting": "HepG2 [1]", "value": 6.25, "unit": "µM"}]}
{"smiles": "COc1ccc(C2=NN(C(=O)c3ccc(Br)cc3)C(c3ccc4c(c3)OCO4)C2)cc1", "note": "(configuration not stated)", "values": [{"measurement": "IC50", "setting": "Tubulin", "value": "> 40", "unit": "µM"}, {"measurement": "IC50", "setting": "MCF7", "value": "> 10", "unit": "µM"}, {"measurement": "IC50", "setting": "A549", "value": "> 10", "unit": "µM"}, {"measurement": "IC50", "setting": "HepG2 [1]", "value": "> 10", "unit": "µM"}]}
{"smiles": "COc1ccc(C2=NN(C(=O)c3cccc(OC)c3)C(c3ccc4c(c3)OCO4)C2)cc1", "note": "(configuration not stated)", "values": [{"measurement": "IC50", "setting": "Tubulin", "value": 34.77, "unit": "µM"}, {"measurement": "IC50", "setting": "MCF7", "value": 8.22, "unit": "µM"}, {"measurement": "IC50", "setting": "A549", "value": 6.17, "unit": "µM"}, {"measurement": "IC50", "setting": "HepG2 [1]", "value": 6.25, "unit": "µM"}]}
{"smiles": "Cc1ccc(C2=NN(C(=O)c3ccc(Br)cc3)C(c3ccc4c(c3)OCO4)C2)cc1", "note": "(configuration not stated)", "values": [{"measurement": "IC50", "setting": "Tubulin", "value": "> 40", "unit": "µM"}, {"measurement": "IC50", "setting": "MCF7", "value": "> 10", "unit": "µM"}, {"measurement": "IC50", "setting": "A549", "value": "> 10", "unit": "µM"}, {"measurement": "IC50", "setting": "HepG2 [1]", "value": "> 10", "unit": "µM"}]}
{"smiles": "COc1cc(C2=NN(C(=O)c3ccc(F)cc3)C(c3ccc4c(c3)OCO4)C2)cc(OC)c1OC", "note": "(configuration not stated)", "values": [{"measurement": "IC50", "setting": "Tubulin", "value": 2.09, "unit": "µM"}, {"measurement": "IC50", "setting": "MCF7", "value": 0.22, "unit": "µM"}, {"measurement": "IC50", "setting": "A549", "value": 0.78, "unit": "µM"}, {"measurement": "IC50", "setting": "HepG2 [1]", "value": 1.06, "unit": "µM"}]}
{"smiles": "COc1cc(C(=O)N2N=C(c3cccc(C)c3)CC2c2ccc3c(c2)OCO3)cc(OC)c1OC", "note": "(configuration not stated)", "values": [{"measurement": "IC50", "setting": "Tubulin", "value": 7.08, "unit": "µM"}, {"measurement": "IC50", "setting": "MCF7", "value": 7.34, "unit": "µM"}, {"measurement": "IC50", "setting": "A549", "value": 5.08, "unit": "µM"}, {"measurement": "IC50", "setting": "HepG2 [1]", "value": 5.17, "unit": "µM"}]}
{"smiles": "COc1ccc(C2=NN(C(=O)c3cc(OC)c(OC)c(OC)c3)C(c3ccc4c(c3)OCO4)C2)cc1", "note": "(configuration not stated)", "values": [{"measurement": "Activity", "setting": "HepG2 [2]", "value": 4.86, "unit": "%"}, {"measurement": "viability at 0.01 µM", "setting": "HepG2 [3]", "value": 91.2, "unit": "%"}, {"measurement": "Activity", "setting": "HepG2 [4]", "value": 25.06, "unit": "%"}, {"measurement": "viability at 0.03 µM", "setting": "HepG2 [5]", "value": 85, "unit": "%"}, {"measurement": "Activity", "setting": "HepG2 [6]", "value": 1.92, "unit": "%"}, {"measurement": "viability at 0.05 µM", "setting": "HepG2 [7]", "value": 76.4, "unit": "%"}, {"measurement": "Activity", "setting": "HepG2 [8]", "value": 34.65, "unit": "%"}, {"measurement": "Activity", "setting": "HepG2 [9]", "value": 14.28, "unit": "%"}, {"measurement": "IC50", "setting": "Tubulin", "value": 1.88, "unit": "µM"}, {"measurement": "Activity", "setting": "HepG2 [10]", "value": 2.52, "unit": "%"}, {"measurement": "Activity", "setting": "HepG2 [11]", "value": 3.76, "unit": "%"}, {"measurement": "Activity", "setting": "HepG2 [12]", "value": 13.4, "unit": "%"}, {"measurement": "IC50", "setting": "MCF7", "value": 0.05, "unit": "µM"}, {"measurement": "Activity", "setting": "HepG2 [13]", "value": 1.75, "unit": "%"}, {"measurement": "IC50", "setting": "A549", "value": 0.07, "unit": "µM"}, {"measurement": "Activity", "setting": "HepG2 [14]", "value": 8.72, "unit": "%"}, {"measurement": "Activity", "setting": "HepG2 [15]", "value": 5.34, "unit": "%"}, {"measurement": "Activity", "setting": "HepG2 [16]", "value": 68.96, "unit": "%"}, {"measurement": "IC50", "setting": "HepG2 [1]", "value": 0.03, "unit": "µM"}, {"measurement": "Activity", "setting": "HepG2 [17]", "value": 50.11, "unit": "%"}, {"measurement": "Activity", "setting": "HepG2 [18]", "value": 35.62, "unit": "%"}, {"measurement": "Activity", "setting": "HepG2 [19]", "value": 5.12, "unit": "%"}, {"measurement": "Activity", "setting": "HepG2 [20]", "value": 52.2, "unit": "%"}, {"measurement": "Activity", "setting": "HepG2 [21]", "value": 13.14, "unit": "%"}, {"measurement": "Activity", "setting": "HepG2 [22]", "value": 5.99, "unit": "%"}]}
{"smiles": "COc1ccc(C2=NN(C(=O)c3ccc(Br)cc3)C(c3ccc4c(c3)OCO4)C2)cc1OC", "note": "(configuration not stated)", "values": [{"measurement": "IC50", "setting": "Tubulin", "value": 22.06, "unit": "µM"}, {"measurement": "IC50", "setting": "MCF7", "value": 4.46, "unit": "µM"}, {"measurement": "IC50", "setting": "A549", "value": 3.19, "unit": "µM"}, {"measurement": "IC50", "setting": "HepG2 [1]", "value": 6.26, "unit": "µM"}]}
{"smiles": "O=C(c1ccc(Br)cc1)N1N=C(c2ccccc2)CC1c1ccc2c(c1)OCO2", "note": "(configuration not stated)", "values": [{"measurement": "IC50", "setting": "Tubulin", "value": "> 40", "unit": "µM"}, {"measurement": "IC50", "setting": "MCF7", "value": "> 10", "unit": "µM"}, {"measurement": "IC50", "setting": "A549", "value": "> 10", "unit": "µM"}, {"measurement": "IC50", "setting": "HepG2 [1]", "value": "> 10", "unit": "µM"}]}
